Source: US8288550B2, “Crystalline form of a benzimidazole-carboxamide medicinal compound” (Theravance, Inc., priority 2005, dated 2012)

Key:
Caco-2 cell monolayer = settings: human, Caco-2, 1 h
Experimental: In Vitro Model of Oral Bioavailability: Caco-2 Permeation Assay
The Caco-2 permeation assay was performed to model the ability of test compounds to pass through the intestine and get into the blood stream after oral administration. The rate at which test compounds in solution permeate a cell monolayer designed to mimic the tight junction of human small intestinal monolayers was determined.
Caco-2 (colon, adenocarcinoma; human) cells were obtained from ATCC (American Type Culture Collection; Rockville, Md.). For the permeation study, cells were seeded at a density of 63,000 cells/cm^2 on pre-wetted transwells polycarbonate filters (Costar; Cambridge, Mass.). A cell monolayer was formed after 21 days in culture. Following cell culture in the transwell plate, the membrane containing the cell monolayer was detached from the transwell plate and inserted into the diffusion chamber (Costar; Cambridge, Mass.). The diffusion chamber was inserted into the heating block which was equipped with circulating external, thermostatically regulated 37° C. water for temperature control. […]
The permeation study was performed with test compound concentrations at 100 μM and with ^14C-mannitol to monitor the integrity of the monolayer. […] Samples were analyzed by HPLC or liquid scintillation counting for test compound and mannitol concentrations. The permeation coefficient (Kp) in cm/sec was calculated.

[1] = Dynamic moisture sorption assessment; type: physicochemical
Experimental: Dynamic Moisture Sorption Assessment
Dynamic moisture sorption (DMS) assessment was performed at 25° C. using a VTI atmospheric microbalance, SGA-100 system (VTI Corp., Hialeah, Fla. 33016). A sample size of approximately 5-10 mg was used and the humidity was set at the ambient value at the start of the analysis. A typical DMS analysis consisted of three scans: ambient to 2% relative humidity (RH), 2% RH to 90% RH, 90% RH to 5% RH at a scan rate of 5% RH/step. The mass was measured every two minutes and the RH was changed to the next value (±5% RH) when the mass of the sample was stable to within 0.02% for 5 consecutive points.

[2] = Stability to milling of particles; type: physicochemical; settings: milled from mean particle size about 470 microns to about 15, 22 or 29 microns
[3] = Thermal gravimetric analysis (TGA); type: physicochemical; settings: heating rate 10° C./min
Experimental: Thermogravimetric analysis (TGA) was performed using a TA Instruments Model Q-500 module. Data were collected and analyzed using TA Instruments Thermal Advantage for Q Series™ software. A sample weighing about 2 mg was placed in an aluminum pan on a platinum cradle and scanned from ambient temperature to about 300° C. with a linear heating rate of 10° C./min. The balance and furnace chambers were purged with nitrogen during use.

[4] = Solid state stability assessment (40° C. and 75% RH); type: physicochemical; settings: three months, open glass vials
Experimental: Solid State Stability Assessment
Samples of the crystalline compound of Form I, prepared according to the process of Example 3, were stored in multiple open glass vials at 40° C. and 75% RH. At specific intervals, the contents of a representative vial was removed and analyzed by DSC, TGA, PXRD, and by HPLC for chemical purity.

| Compound | permeation coefficient Kp (Caco-2 cell monolayer) | weight change (moisture sorption) ([1]; 2% to 90% RH, 25° C./room temperature) | weight change (moisture sorption) ([1]; critical humidity range of 40% to 75% RH) | changes by DSC, TGA or PXRD after milling [2] | onset of degradation (TGA) [3] | change in DSC, TGA, PXRD after storage [4] |
| --- | --- | --- | --- | --- | --- | --- |
| COC(=O)N1CCC(CN2CCC(CNC(=O)c3cccc4[nH]c(C(C)C)nc34)CC2)CC1 [compound of the invention, 4-(4-{[(2-isopropyl-1H-benzoimidazole-4-carbonyl)amino]methyl}-piperidin-1-ylmethyl)piperidine-1-carboxylic acid methyl ester] | greater than 50×10^−6 cm/sec |  |  |  |  |  |
| COC(=O)N1CCC(CN2CCC(CNC(=O)c3cccc4[nH]c(C(C)C)nc34)CC2)CC1 [Form I, 4-(4-{[(2-isopropyl-1H-benzoimidazole-4-carbonyl)amino]methyl}-piperidin-1-ylmethyl)piperidine-1-carboxylic acid methyl ester] |  | less than 0.25% | less than 0.1% | no changes detectable | above 240 °C | no detectable changes |
